Source: US10933008B1, “Silicon-based cannabidiol derivatives and compositions thereof” (Gelest Technologies, Inc., priority 2015, dated 2021)

Experiments:
[1] = Solubility study in common oils, silicones and water; assay type: physicochemical
Description: It may be concluded that the CBD isolate was soluble in all oils and insoluble in all silicones and water. The CBD derivatives were insoluble in water and soluble in both oils and silicones (heating was required for the derivative of Example 1). […] Thus, the presence of the silicon-containing groups increased the solubility of CBD in all silicones tested.

[2] = Release of CBD from the infused silicone elastomer on water washes, TLC analysis; assay type: physicochemical; settings: hydrolyzed sample and water washes compared to CBD isolate
Method: A solution was prepared by adding 5 g of the trisiloxanyl-cannabidiol product (IV) prepared in Example 3 and 5 g of n-propylheptamethyltrisiloxane (commercially available from Gelest) to a 20 ml vial. Sample 1 was prepared by inserting apiece of silicone elastomer (1.5 cm×2.5 cm, 0.35 g, commercially available from Gelest) into a 20 ml vial containing the solution and letting the vial sit with a closed lid for 30 minutes to absorb the solution into the elastomer. Sample 2 (control) was an identical piece of silicone elastomer which was inserted into a 20 ml vial containing hemp seed oil and let sit with a closed lid for 30 minutes to absorb the hemp oil into the elastomer.
Sample 1 was washed in water three consecutive times. For each wash, the sample was placed in a vial containing 10 g of DI water and shaken for 10 seconds. The water from each wash was collected and analyzed for the presence of CBD using a basic thin-layer chromatography (TLC) method using 20% ethyl acetate in hexanes. CBD isolate was compared to a hydrolyzed sample of trisiloxanyl-cannabidiol product (IV) as well as all three washes.

With `CCCCCc1cc(O)c([C@H]2C=C(C)CC[C@H]2C(C)C[Si](C)(C)O[Si](C)(C)O[Si](C)(C)O[Si](C)(C)O[Si](C)(C)CCCC)c(O)c1` (stereo partly drawn) [Example 2, 2-[(1R,6R)-3-Methyl-6-(1-methyl-2-(1-butyl-1,1,3,3,5,5,7,7-octamethyltetrasiloxy-dimethylsilyl)ethyl)-2-cyclohexen-1-yl]-5-pentyl-1,3-benzenediol] the “Solubility in castor oil” value ([1]; castor oil, even with partial heating) was “only partially soluble”.

With `C=C(C)[C@@H]1CCC(C)=C[C@H]1c1c(O)cc(CCCCC)cc1O` [CBD, 2-[(1R,6R)-3-methyl-6-(1-methylethenyl)-2-cyclohexen-1-yl]-5-pentyl-1,3-benzenediol, reference compound] the “Solubility in oils” value ([1]; all oils tested) was “soluble”, the “Solubility in silicones” value ([1]; all silicones tested) was “insoluble” and the “Solubility in water” value ([1]; water) was “insoluble”.

With `C=C(C)[C@@H]1CCC(C)=C[C@H]1c1c(O)cc(CCCCC)cc1O[Si](C)(O[Si](C)(C)C)O[Si](C)(C)C` [Example 3, 2-[(1R,6R)-3-Methyl-6-(1-methylethenyl)-2-cyclohexen-1-yl]-5-pentyl-1-(bis(trimethylsiloxy)methylsiloxy)-3-ol-benzene] the “Hydrolysis to release CBD (TLC)” value [2] was “underwent hydrolysis to release CBD”.
